This passage reports IC50 results from patent publication US8471005B2 (Cephalon, Inc., priority 2008, dated 2013).

One test concerns the target T1, ALK (Homo sapiens, UniProt Q9UM73).
T1 construct: host or cells: baculovirus expression system
The test is described as follows: ALK Kinase Assay (ELISA/TRF, PLC-γ substrate). The format is biochemical. The following applies: read-out: ALK Potency. In a few lines: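 PLC-γ substrate coated at 10 μg/mL in TBS; reaction started with 30 ng/ml ALK, run 15 min at 37° C. Phosphoproduct detected by TRF with Eu-N1-labeled PT66 anti-phosphotyrosine antibody. IC50 from sigmoidal variable-slope fit of percent inhibition versus log concentration.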
(In an ELISA, binding on a coated surface is turned into a signal by an enzyme label.)

Another test addresses T2, JAK2 (Homo sapiens, UniProt O60674).
T2 construct: host or cells: baculovirus expression system
The test is described as follows: Recombinant Human JAK2 Kinase Assay (TRF). The class given is biochemical. The following applies: read-out: JAK2 Potency. In outline:
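Kinase activity of baculovirus-expressed JAK2 is followed on a surface-immobilised biotinylated peptide, with the reaction run for 20 min at room temperature in buffer containing 0.2 μM ATP and manganese. Phosphorylation is read with Eu-N1 PY100 antibody.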

Where [1] appears, read: ALK kinase inhibition, 1 μM ATP.
[2] abbreviates: JAK2 kinase inhibition, 0.2 μM ATP.

Structures are written as SMILES. Read-outs that look alike come from different tables or passages of the source.

T1 sequence (Q9UM73 19-1620): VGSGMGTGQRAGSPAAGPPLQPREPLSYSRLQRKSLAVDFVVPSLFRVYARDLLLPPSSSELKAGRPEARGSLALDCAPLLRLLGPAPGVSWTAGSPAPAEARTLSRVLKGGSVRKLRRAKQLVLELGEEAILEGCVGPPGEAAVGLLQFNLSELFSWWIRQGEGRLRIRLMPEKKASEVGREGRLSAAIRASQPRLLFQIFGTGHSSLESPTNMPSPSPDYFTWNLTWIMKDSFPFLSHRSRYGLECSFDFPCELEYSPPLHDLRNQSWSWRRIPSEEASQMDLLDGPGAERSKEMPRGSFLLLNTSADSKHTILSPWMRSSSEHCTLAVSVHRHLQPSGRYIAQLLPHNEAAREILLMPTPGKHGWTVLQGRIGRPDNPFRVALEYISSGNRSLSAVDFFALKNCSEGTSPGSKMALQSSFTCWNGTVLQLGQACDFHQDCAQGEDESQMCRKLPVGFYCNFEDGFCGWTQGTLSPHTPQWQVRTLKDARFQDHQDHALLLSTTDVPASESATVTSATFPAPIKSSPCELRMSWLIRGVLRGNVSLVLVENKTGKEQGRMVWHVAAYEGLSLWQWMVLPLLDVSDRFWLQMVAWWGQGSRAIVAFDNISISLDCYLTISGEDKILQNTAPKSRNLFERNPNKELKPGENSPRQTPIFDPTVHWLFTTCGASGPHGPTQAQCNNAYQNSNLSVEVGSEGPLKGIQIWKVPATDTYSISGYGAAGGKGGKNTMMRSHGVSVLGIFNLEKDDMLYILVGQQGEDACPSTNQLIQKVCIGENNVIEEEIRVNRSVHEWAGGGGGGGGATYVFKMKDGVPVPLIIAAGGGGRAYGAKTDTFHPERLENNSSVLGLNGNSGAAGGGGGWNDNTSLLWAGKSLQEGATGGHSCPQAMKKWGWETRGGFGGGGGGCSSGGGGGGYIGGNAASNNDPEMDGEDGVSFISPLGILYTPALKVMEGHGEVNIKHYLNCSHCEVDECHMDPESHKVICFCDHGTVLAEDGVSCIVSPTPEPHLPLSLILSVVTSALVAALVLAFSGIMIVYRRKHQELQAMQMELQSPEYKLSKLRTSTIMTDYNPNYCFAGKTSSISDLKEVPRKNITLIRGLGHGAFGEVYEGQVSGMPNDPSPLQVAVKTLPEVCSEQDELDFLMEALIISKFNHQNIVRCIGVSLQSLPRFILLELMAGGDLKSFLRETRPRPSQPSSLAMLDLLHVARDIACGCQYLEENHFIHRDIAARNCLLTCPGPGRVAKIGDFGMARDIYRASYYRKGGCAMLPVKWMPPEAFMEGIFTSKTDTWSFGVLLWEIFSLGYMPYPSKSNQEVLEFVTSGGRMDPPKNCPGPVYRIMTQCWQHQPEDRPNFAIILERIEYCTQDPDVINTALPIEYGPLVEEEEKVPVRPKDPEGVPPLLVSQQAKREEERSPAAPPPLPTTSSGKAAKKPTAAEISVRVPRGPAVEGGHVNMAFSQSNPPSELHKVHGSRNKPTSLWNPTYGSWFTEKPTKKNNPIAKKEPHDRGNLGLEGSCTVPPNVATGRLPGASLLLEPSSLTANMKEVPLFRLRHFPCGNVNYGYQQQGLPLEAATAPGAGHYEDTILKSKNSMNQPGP
T2 sequence (O60674 whole entry): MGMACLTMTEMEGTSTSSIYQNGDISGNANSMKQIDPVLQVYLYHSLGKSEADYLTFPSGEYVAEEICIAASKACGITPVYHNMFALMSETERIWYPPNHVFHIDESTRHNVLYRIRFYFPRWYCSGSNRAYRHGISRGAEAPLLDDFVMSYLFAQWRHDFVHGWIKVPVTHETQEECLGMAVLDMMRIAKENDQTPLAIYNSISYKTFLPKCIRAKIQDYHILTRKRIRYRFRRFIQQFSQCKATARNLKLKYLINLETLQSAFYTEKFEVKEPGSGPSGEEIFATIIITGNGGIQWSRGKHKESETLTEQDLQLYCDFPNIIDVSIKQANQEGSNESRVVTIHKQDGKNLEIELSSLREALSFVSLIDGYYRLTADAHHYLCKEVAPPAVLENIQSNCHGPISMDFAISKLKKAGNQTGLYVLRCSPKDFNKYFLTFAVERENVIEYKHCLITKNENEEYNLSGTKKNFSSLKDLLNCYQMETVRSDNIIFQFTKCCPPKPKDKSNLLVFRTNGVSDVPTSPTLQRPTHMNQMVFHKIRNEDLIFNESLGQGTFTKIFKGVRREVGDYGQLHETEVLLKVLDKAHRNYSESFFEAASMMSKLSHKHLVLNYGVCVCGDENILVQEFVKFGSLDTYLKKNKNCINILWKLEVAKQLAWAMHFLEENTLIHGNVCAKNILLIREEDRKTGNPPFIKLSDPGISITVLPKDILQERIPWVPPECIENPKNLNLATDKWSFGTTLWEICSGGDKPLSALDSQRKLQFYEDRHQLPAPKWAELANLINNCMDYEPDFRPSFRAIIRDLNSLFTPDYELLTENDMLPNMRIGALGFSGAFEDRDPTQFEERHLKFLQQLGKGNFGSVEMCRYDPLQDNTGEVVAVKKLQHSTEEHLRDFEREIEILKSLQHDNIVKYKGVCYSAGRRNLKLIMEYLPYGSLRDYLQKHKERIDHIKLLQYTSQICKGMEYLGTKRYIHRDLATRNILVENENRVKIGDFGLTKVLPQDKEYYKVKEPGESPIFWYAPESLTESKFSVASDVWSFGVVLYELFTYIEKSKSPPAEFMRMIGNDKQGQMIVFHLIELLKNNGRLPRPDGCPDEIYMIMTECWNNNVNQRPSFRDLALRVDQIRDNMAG

Consider `C[C@@H](O)CN1CCN(c2ccc(Nc3ncc4ccc(-c5cccc(Cl)c5)n4n3)cc2)CC1` [Example 208, (R)-1-(4-{4-[7-(3-Chloro-phenyl)-pyrrolo[2,1-f][1,2,4]triazin-2-ylamino]-phenyl}-piperazin-1-yl)-propan-2-ol], for which the IC50 is 100 to 1000 nM at ALK (ALK Kinase Inhibition) and < 100 nM at JAK2 (JAK2 Kinase Inhibition).
In the case of `COCC(C)OC(=O)COc1ccccc1-c1ccc2cnc(Nc3ccc(N4CCN(C)CC4)c(F)c3)nn12` (stereo not drawn) [Example 1397, (2-{2-[3-Fluoro-4-(4-methyl-piperazin-1-yl)-phenylamino]-pyrrolo[2,1-f][1,2,4]triazin-7-yl}-phenoxy)-acetic acid 2-methoxy-1-methyl-ethyl ester], the IC50 at ALK (ALK Kinase Inhibition) was 1000 to 10000 nM; at JAK2 (JAK2 Kinase Inhibition), < 100 nM.
For `NC(=O)CN1CCC(c2ccc(Nc3ncc4ccc(C5=CCNCC5)n4n3)cc2)CC1` [Example 664, 2-(4-{4-[7-(1,2,3,6-Tetrahydro-pyridin-4-yl)-pyrrolo[2,1-f][1,2,4]triazin-2-ylamino]-phenyl}-piperidin-1-yl)-acetamide], the IC50 is 100 to 1000 nM on ALK (setting [1]) and < 100 nM at JAK2 (setting [2]).
As for `CCN(CC)C1CCN(c2ccc(Nc3ncc4ccc(-c5ccccc5N(C)S(C)(=O)=O)n4n3)cc2)CC1` [Example 1204, N-(2-{2-[4-(4-Diethylamino-piperidin-1-yl)-phenylamino]-pyrrolo[2,1-f][1,2,4]triazin-7-yl}-phenyl)-N-methyl-methanesulfonamide], the IC50 at ALK (setting [1]) and on JAK2 (setting [2]) was < 100 nM throughout.
As to `COc1cc(C2=CCNCC2)ccc1Nc1ncc2ccc(-c3ccccc3N(C)S(C)(=O)=O)n2n1` [Example 742, N-(2-{2-[2-Methoxy-4-(1,2,3,6-tetrahydro-pyridin-4-yl)-phenylamino]-pyrrolo[2,1-f][1,2,4]triazin-7-yl}-phenyl)-N-methyl-methanesulfonamide], the IC50 is < 100 nM at ALK (setting [1]) and 100 to 1000 nM at JAK2 (setting [2]).
In the case of `COc1cc2c(cc1Nc1ncc3ccc(-c4cccc(S(=O)(=O)NC(C)(C)C)c4)n3n1)CCN(C[C@@H](C)O)CC2` [Example 700], the IC50 at ALK (setting [1]) is < 100 nM; on JAK2 (setting [2]) it was 100 to 1000 nM.
Regarding `Fc1ccc(Nc2ncc3ccc(-c4cccnc4)n3n2)cc1N1CCOCC1` [Example 391, (4-Fluoro-3-morpholin-4-yl-phenyl)-(7-pyridin-3-yl-pyrrolo[2,1-f][1,2,4]triazin-2-yl)-amine], the results for the IC50 at ALK (ALK Kinase Inhibition) and on JAK2 (JAK2 Kinase Inhibition) were 1000 to 10000 nM and < 100 nM, respectively.
On to `COc1ccc(C(=O)N2CCN(C)CC2)cc1Nc1ncc2ccc(-c3ccccc3N(C)S(C)(=O)=O)n2n1` [Example 496, N-(2-{2-[2-Methoxy-5-(4-methyl-piperazine-1-carbonyl)-phenylamino]-pyrrolo[2,1-f][1,2,4]triazin-7-yl}-phenyl)-N-methyl-methanesulfonamide], for which the IC50 was 1000 to 10000 nM on ALK (setting [1]) and > 10000 nM at JAK2 (setting [2]).
Take `COc1ccccc1-c1ccc2cnc(Nc3ccc4cn(CCN5CCOCC5)nc4c3)nn12` [Example 1350, [7-(2-Methoxy-phenyl)-pyrrolo[2,1-f][1,2,4]triazin-2-yl]-[2-(2-morpholin-4-yl-ethyl)-2H-indazol-6-yl]-amine]: the IC50 at ALK (setting [1]) was 1000 to 10000 nM; on JAK2 (setting [2]) it was < 100 nM.
Turning to `COc1ccc(Nc2ncc3ccc(-c4ccccc4N(C)S(C)(=O)=O)n3n2)cc1N1CCCC1=O` [Example 1370, N-(2-{2-[4-Methoxy-3-(2-oxo-pyrrolidin-1-yl)-phenylamino]-pyrrolo[2,1-f][1,2,4]triazin-7-yl}-phenyl)-N-methyl-methanesulfonamide], the figures for the IC50 on ALK (ALK Kinase Inhibition) and at JAK2 (JAK2 Kinase Inhibition) were 100 to 1000 nM and < 100 nM, respectively.
Turning to `COc1cccc(Nc2ncc3ccc(-c4ccccc4OC)n3n2)c1` [Example 145, (3-Methoxy-phenyl)-[7-(2-methoxy-phenyl)-pyrrolo[2,1-f][1,2,4]triazin-2-yl]-amine], the values for the IC50 at ALK (ALK Kinase Inhibition) and on JAK2 (JAK2 Kinase Inhibition) were 1000 to 10000 nM and < 100 nM, respectively.
Consider `COc1ccc(Cl)cc1-c1ccc2cnc(Nc3ccc4[nH]ccc4c3)nn12` [Example 171, [7-(5-Chloro-2-methoxy-phenyl)-pyrrolo[2,1-f][1,2,4]triazin-2-yl]-(1H-indol-5-yl)-amine], for which the IC50 was 100 to 1000 nM on ALK (ALK Kinase Inhibition) and < 100 nM on JAK2 (JAK2 Kinase Inhibition).
Consider `COCCN1CCc2ccc(Nc3ncc4ccc(-c5ccc(S(C)(=O)=O)cc5)n4n3)cc2CC1` [Example 89, [7-(4-Methanesulfonyl-phenyl)-pyrrolo[2,1-f][1,2,4]triazin-2-yl]-[3-(2-methoxy-ethyl)-2,3,4,5-tetrahydro-1H-benzo[d]azepin-7-yl]-amine], for which the values for the IC50 on ALK (ALK Kinase Inhibition) and on JAK2 (JAK2 Kinase Inhibition) were 100 to 1000 nM and < 100 nM, respectively.
Consider `CC(C)S(=O)(=O)c1cccc(-c2ccc3cnc(Nc4ccc(C5CCN(CC(N)=O)CC5)cc4)nn23)c1` [Example 570, 2-[4-(4-{7-[3-(Propane-2-sulfonyl)-phenyl]-pyrrolo[2,1-f][1,2,4]triazin-2-ylamino}-phenyl)-piperidin-1-yl]-acetamide], for which the IC50 was 100 to 1000 nM on ALK (setting [1]) and < 100 nM on JAK2 (setting [2]).
As to `CC(C)(C)NS(=O)(=O)c1cccc(-c2ccc3cnc(Nc4ccc(C5CCC(N6CCCC6)CC5)cc4)nn23)c1` (stereo not drawn) [Example 566, N-tert-Butyl-3-{2-[4-(4-pyrrolidin-1-yl-cyclohexyl)-phenylamino]-pyrrolo[2,1-f][1,2,4]triazin-7-yl}-benzenesulfonamide], the IC50 at ALK (setting [1]) is 100 to 1000 nM; at JAK2 (setting [2]), < 100 nM.
`COCCNc1cccc(-c2ccc3cnc(Nc4cccc(NC(C)=O)c4)nn23)c1` [Example 988, N-(3-{7-[3-(2-Methoxy-ethylamino)-phenyl]-pyrrolo[2,1-f][1,2,4]triazin-2-ylamino}-phenyl)-acetamide]: the IC50 is 1000 to 10000 nM at ALK (setting [1]) and < 100 nM on JAK2 (setting [2]).
For the compound `COc1cc(C2CCNCC2)ccc1Nc1ncc2ccc(-c3cccc4c3NC(=O)C4)n2n1` [Example 714, 7-[2-(2-Methoxy-4-piperidin-4-ylphenylamino)pyrrolo[2,1-f][1,2,4]triazin-7-yl]-1,3-dihydro-indol-2-one], the IC50 on ALK (setting [1]) and at JAK2 (setting [2]) was 1000 to 10000 nM each time.
`COc1cc2c(cc1Nc1ncc3ccc(-c4ccccc4OC)n3n1)CN(CC(N)=O)C2` [Example 864, 2-{5-Methoxy-6-[7-(2-methoxy-phenyl)-pyrrolo[2,1-f][1,2,4]triazin-2-ylamino]-1,3-dihydro-isoindol-2-yl}-acetamide]: the IC50 on ALK (setting [1]) and at JAK2 (setting [2]) was < 100 nM in each case.
Take `Cn1cnc2cc(Nc3ncc4ccc(-c5cccc(S(=O)(=O)NC(C)(C)C)c5)n4n3)ccc21` [Example 1332, N-tert-Butyl-3-[2-(1-methyl-1H-benzimidazol-5-ylamino)-pyrrolo[2,1-f][1,2,4]triazin-7-yl]-benzenesulfonamide]: the results for the IC50 on ALK (setting [1]) and on JAK2 (setting [2]) were > 10000 nM and < 100 nM, respectively.
Take `N#Cc1cccc(-c2ccc3cnc(Nc4ccc(N5CCOCC5)cc4)nn23)c1` [Example 39, 3-[2-(4-Morpholin-4-yl-phenylamino)-pyrrolo[2,1-f][1,2,4]triazin-7-yl]-benzonitrile]: the IC50 was > 10000 nM at ALK (ALK Kinase Inhibition) and < 100 nM at JAK2 (JAK2 Kinase Inhibition).
Turning to `C#CCNC(=O)c1cccc(-c2ccc3cnc(Nc4ccc(N5CCN(C)CC5)cc4)nn23)c1` [Example 1147, 3-{2-[4-(4-Methyl-piperazin-1-yl)-phenylamino]-pyrrolo[2,1-f][1,2,4]triazin-7-yl}-N-prop-2-ynyl-benzamide], the IC50 at ALK (setting [1]) was 100 to 1000 nM; on JAK2 (setting [2]), < 100 nM.
Consider `O=S(=O)(c1cccc(-c2ccc3cnc(Nc4ccc(-c5cccnc5)cc4)nn23)c1)N1CCCC1` [Example 1086, (4-Pyridin-3-yl-phenyl)-{7-[3-(pyrrolidine-1-sulfonyl)-phenyl]-pyrrolo[2,1-f][1,2,4]triazin-2-yl}-amine], for which the values for the IC50 at ALK (setting [1]) and at JAK2 (setting [2]) were > 10000 nM and < 100 nM, respectively.
For `COc1cc(N2CCN(C[C@@H](O)CO)CC2)ccc1Nc1ncc2ccc(-c3cc(Cl)ccc3OC)n2n1` [Example 757, (R)-3-(4-{4-[7-(5-Chloro-2-methoxy-phenyl)-pyrrolo[2,1-f][1,2,4]triazin-2-ylamino]-3-methoxy-phenyl}-piperazin-1-yl)-propane-1,2-diol], in that order: < 100 nM and 100 to 1000 nM.
For the compound `CN1CCN(c2ccc(Nc3ncc4ccc(CNc5ccccc5)n4n3)cc2)CC1` [Example 363, [4-(4-Methyl-piperazin-1-yl)-phenyl]-(7-phenylaminomethyl-pyrrolo[2,1-f][1,2,4]triazin-2-yl)-amine], the IC50 on ALK (ALK Kinase Inhibition) is 1000 to 10000 nM; on JAK2 (JAK2 Kinase Inhibition), < 100 nM.
Take `COc1cc([C@H]2CC[C@@H](N3CCOCC3)CC2)ccc1Nc1ncc2ccc(-c3ccccc3N(C)S(C)(=O)=O)n2n1` [Example 1249, N-{2-[2-({2-methoxy-4-[cis-4-(morpholin-4-yl)cyclohexyl]phenyl}amino)pyrrolo[2,1-f][1,2,4]triazin-7-yl]phenyl}-N-methylmethanesulfonamide]: the IC50 on ALK (setting [1]) was < 100 nM; at JAK2 (setting [2]) it was 1000 to 10000 nM.
For `COc1cc(CN2CCN(C(=O)CN)CC2)ccc1Nc1ncc2ccc(-c3ccccc3OC)n2n1` [Example 1244, 2-Amino-1-(4-{3-methoxy-4-[7-(2-methoxy-phenyl)-pyrrolo[2,1-f][1,2,4]triazin-2-ylamino]-benzyl}-piperazin-1-yl)-ethanone], the IC50 is < 100 nM on ALK (setting [1]) and 100 to 1000 nM at JAK2 (setting [2]).
For `COc1ccc(-c2ccc3cnc(Nc4ccc5nc(CN6CCN(C)CC6)[nH]c5c4)nn23)cn1` [Example 1527, [7-(6-Methoxy-pyridin-3-yl)-pyrrolo[2,1-f][1,2,4]triazin-2-yl]-[2-(4-methyl-piperazin-1-ylmethyl)-3H-benzimidazol-5-yl]-amine], the IC50 on ALK (ALK Kinase Inhibition) is 100 to 1000 nM; on JAK2 (JAK2 Kinase Inhibition) it was < 100 nM.
